Key:
Format in all cases: cell-based
[1] = system: NCI-H69 (H69) cell line; test: Cell viability assay for NCI-H69 cell line; settings: Homo sapiens, NCI-H69, 120 h, 5 days, EZ-Cytox, 0.46-3000 nM
Description: (§1) The NCI-H69 (hereafter H69) and NCI-H526 (hereafter H526) cell lines were purchased from Korea Cell Line Bank (KCLB, Seoul, Korea). For cell culture, RPMI 1640 (Gibco, Cat. No. 22400-089; Lot. No. 2537146), FBS (Gibco, Cat. No. 16000-044; Lot. No. 2511328P), Penicillin/Streptomycin (PS) (Gibco, Cat. No. 15140-122; Lot. No. 2441887), 75T cell culture flask (SPL, Cat. No. 71075), 175T cell culture flask (SPL, Cat. No. 71175), 96-well cell culture plate (SPL, Cat. No. 30096), PBS pH 7.4 (Gibco, Cat. No. 10010-023; Lot. No. 2509235), TrypLE™ Express (Gibco, Cat. No. 12605-010; Lot. No. 2323417), Cell Counter (Hematocytometer)(As one, Cat. No. 4-458-01), and 0.4% Trypan Blue Solution (DYNEBIO, Cat. No. CBT3710; Lot. No. 20221111) were used.
(§2) The compounds of Examples were completely dissolved in DMSO (Sigma-Aldrich Cat. No. D2438, Lot. No. RNBL7287) and used in the experiment. 3×10^4 cells were seeded for each well of a 96-well plate (SPL), and the cells were cultured in total volume of 150 μl. Each compound was diluted 3-folds from the highest concentration of 3000 nM to the lowest concentration of 0.46 nM. After treating the compound to each well to make the total volume of 200 μl, it was cultured in a CO2 incubator (Thermo Fisher Science, Cat. No. 4111) for 5 days. Then, after treating EZ-Cytox (DOGEN, Cat.NO. EZ-3000, Lot. No. DLS2308) 20 μl in each well, it was cultured in CO2 incubator for 4 hours. The absorbance of the completely cultured sample was measured by setting the wavelength of a plate reader (BMG Labtech, CLARIOstar Plus) to […], and was measured after shaking for 3 minutes in a plate reader before measurement.
(§3) (A: IC50 is less than 20 nM, B: IC50 is 50 nM or less, C: IC50 is 100 nM or less)

[2] = target: T1, PLK1 (Homo sapiens, UniProt P53350); test: Luciferase assay for PLK1 in HeLa LgBit (PLK1-HiBit KI) cell line; settings: released after thymidine block, compound 300 nM, luminescence after 9 hours
T1 construct: endogenous in cells; host or cells: HeLa LgBit (PLK1-HiBit KI): HeLa cells stably expressing LgBit, with CRISPR/Cas9 knock-in of HiBit at the endogenous PLK1 locus
T1 sequence (P53350 whole entry): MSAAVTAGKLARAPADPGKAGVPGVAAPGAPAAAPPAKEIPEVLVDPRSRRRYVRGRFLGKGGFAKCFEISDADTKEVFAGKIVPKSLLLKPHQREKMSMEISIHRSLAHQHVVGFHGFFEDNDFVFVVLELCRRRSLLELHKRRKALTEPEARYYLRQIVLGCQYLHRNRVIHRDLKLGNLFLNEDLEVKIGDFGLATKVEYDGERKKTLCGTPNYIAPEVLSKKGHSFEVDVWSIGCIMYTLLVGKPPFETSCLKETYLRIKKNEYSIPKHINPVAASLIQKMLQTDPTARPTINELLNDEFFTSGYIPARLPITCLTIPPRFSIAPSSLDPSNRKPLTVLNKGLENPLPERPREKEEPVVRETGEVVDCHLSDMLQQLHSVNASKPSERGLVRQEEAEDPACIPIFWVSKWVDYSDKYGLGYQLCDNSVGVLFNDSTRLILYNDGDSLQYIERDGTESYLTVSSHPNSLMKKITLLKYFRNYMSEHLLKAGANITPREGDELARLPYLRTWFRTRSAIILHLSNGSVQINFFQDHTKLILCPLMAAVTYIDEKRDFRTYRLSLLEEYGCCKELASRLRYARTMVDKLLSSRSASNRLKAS
Method: A HeLa cell line in which the LgBit vector was transfected and expressed stably was prepared. Then, after constructing gRNA and donor to express the HiBit amino acid sequence behind the C-terminal of the PLK1 gene, which was inherent in the cell, it was inserted into the cell together with a vector capable of expressing CRISPR/Cas9. Only the cells in which the insertion was completed and knock-in had progressed were selected, sub-cultured and used.
The compounds of Examples were completely dissolved in DMSO (Sigma-Aldrich Cat. No. D2438, Lot. No. RNBL5438) and used in the experiment.
In the case of HeLa LgBit (Plk1-HiBit KI), the compounds were treated after being released after thymidine block, and the process was as follows. Thymidine (Sigma-Aldrich Cat. No. T9250-5G) was completely dissolved in ddH2O and used in the experiment. For thymidine block, the products were treated with 2 mM of thymidine and then incubated for 24 hours. For release and chemical treatment, the medium was suctioned and washed with 1×PBS. TrypLE™ was added and incubated in 37° C. CO2 incubator (Thermo Fisher Science, Cat. No. 4111) for 5 mins. Cells neutralized by adding complete media were counted through a counter. For each well of a 96-well culture plate (SPL), 3.3×10^4 cells and a total medium volume of 150 μl were seeded and incubated in a CO2 incubator.
Each cell line was incubated in a CO2 incubator for 18 hours, and Endurazine (Promega, Cat. No. N257B) was added to each well to make up 4% of the total volume. After adding compounds of Examples in a 96-well white plate (SPL) to a concentration of 300 nM, the wavelength of the plate reader (BMG Labtech, CLARIOstar Plus) was set to 470-480 nM, and then the luminescence was tracked in real time.

[3] = system: NCI-H526 (H526) cell line; test: Cell viability assay for NCI-H526 cell line; settings: Homo sapiens, NCI-H526, 120 h, 5 days, EZ-Cytox, 0.46-3000 nM
Description: as §1, §2, §3

Row | SMILES | IC50 [1] [nM] | Value (luminescence value, PLK1-HiBit) [2] | IC50 [3] [nM]
1 | CC[C@@H]1C(=O)N(C)c2cnc(Nc3ccc(C(=O)N[C@H]4CC[C@H](NCC5CCN(c6ccc(C7CCC(=O)NC7=O)nc6)CC5)CC4)cc3OC)nc2N1C1CCCC1 (stereo partly drawn) [Compound 25, 4-(((R)-8-cyclopentyl-7-ethyl-5-methyl-6-oxo-5,6,7,8-tetrahydropteridin-2-yl)amino)-N-((1r,4R)-4-(((1-(6-(2,6-dioxopiperidin-3-yl)pyridin-3-yl)piperidin-4-yl)methyl)amino)cyclohexyl)-3-methoxybenzamide] | < 20 | 0.144 | < 20
2 | COc1cc(C(=O)NC2CCN(C(=O)CCN3CCN(c4ccc(NC5CCC(=O)NC5=O)cc4F)CC3)CC2)ccc1Nc1ncc2c(n1)N(C1CCCC1)CC(F)(F)C(=O)N2C (stereo not drawn) [Compound 26, 4-((9-cyclopentyl-7,7-difluoro-5-methyl-6-oxo-6,7,8,9-tetrahydro-5H-pyrimido[4,5-b][1,4]diazepin-2-yl)amino)-N-(1-(3-(4-(4-((2,6-dioxopiperidin-3-yl)amino)-2-fluorophenyl)piperazin-1-yl)propanoyl)piperidin-4-yl)-3-methoxybenzamide] | ≤ 50 | 0.269 | < 20
3 | COc1cc(C(=O)NCC2CCN(CC3CCN(c4ccc(C5CCC(=O)NC5=O)cc4)CC3)CC2)ccc1Nc1ncc2c(n1)N(C1CCCC1)CC(F)(F)C(=O)N2C (stereo not drawn) [Compound 27, 4-((9-cyclopentyl-7,7-difluoro-5-methyl-6-oxo-6,7,8,9-tetrahydro-5H-pyrimido[4,5-b][1,4]diazepin-2-yl)amino)-N-((1-((1-(4-(2,6-dioxopiperidin-3-yl)phenyl)piperidin-4-yl)methyl)piperidin-4-yl)methyl)-3-methoxybenzamide] | ≤ 50 | 0.295 | ≤ 50
4 | COc1cc(C(=O)NCC2CCN(CC3CCN(c4ccc(NC5CCC(=O)NC5=O)cc4)CC3)CC2)ccc1Nc1ncc2c(n1)N(C1CCCC1)CC(F)(F)C(=O)N2C (stereo not drawn) [Compound 28, 4-((9-cyclopentyl-7,7-difluoro-5-methyl-6-oxo-6,7,8,9-tetrahydro-5H-pyrimido[4,5-b][1,4]diazepin-2-yl)amino)-N-((1-((1-(4-((2,6-dioxopiperidin-3-yl)amino)phenyl)piperidin-4-yl)methyl)piperidin-4-yl)methyl)-3-methoxybenzamide] | ≤ 100 | 0.259 | ≤ 50
5 | COc1cc(C(=O)NC2CCN(C(=O)CCN3CCN(c4ccc(NC5CCC(=O)NC5=O)cc4)CC3)CC2)ccc1Nc1ncc2c(n1)N(C1CCCC1)CC1(CC1)C(=O)N2C (stereo not drawn) [Compound 29, 4-((9′-cyclopentyl-5′-methyl-6′-oxo-5′,6′,8′,9′-tetrahydrospiro[cyclopropane-1,7′-pyrimido[4,5-b][1,4]diazepin]-2′-yl)amino)-N-(1-(3-(4-(4-((2,6-dioxopiperidin-3-yl)amino)phenyl)piperazin-1-yl)propanoyl)piperidin-4-yl)-3-methoxybenzamide] | ≤ 100 | 0.267 | ≤ 50
6 | COc1cc(C(=O)NC2CCC(NCC3CCN(c4ccc(C5CCC(=O)NC5=O)cc4F)CC3)CC2)ccc1Nc1ncc2c(n1)N(C1CCCC1)CC(F)(F)C(=O)N2C (stereo not drawn) [Compound 30, 4-((9-cyclopentyl-7,7-difluoro-5-methyl-6-oxo-6,7,8,9-tetrahydro-5H-pyrimido[4,5-b][1,4]diazepin-2-yl)amino)-N-((1r,4r)-4-(((1-(4-(2,6-dioxopiperidin-3-yl)-2-fluorophenyl)piperidin-4-yl)methyl)amino)cyclohexyl)-3-methoxybenzamide] | ≤ 50 | 0.250 | ≤ 50
7 | COc1cc(C(=O)NN2CCC(C(N)CN3CCN(c4ccc(C5CCC(=O)NC5=O)cc4F)CC3)CC2)ccc1Nc1ncc2c(n1)N(C(C)C)CC(F)(F)C(=O)N2C (stereo not drawn) [Compound 31, N-(4-(1-amino-2-(4-(4-(2,6-dioxopiperidin-3-yl)-2-fluorophenyl)piperazin-1-yl)ethyl)piperidin-1-yl)-4-((7,7-difluoro-9-isopropyl-5-methyl-6-oxo-6,7,8,9-tetrahydro-5H-pyrimido[4,5-b][1,4]diazepin-2-yl)amino)-3-methoxybenzamide] | ≤ 50 | 0.241 | ≤ 50

From patent publication US20260199367A1, “PLK1 DEGRADATION INDUCING COMPOUNDS WITH INCREASED RIGIDITY” (UPPTHERA, INC., priority 2022, published 2026)
